Reference: US8802597B2, “Herbicidal pyrimidines” (E I du Pont de Nemours and Company, priority 2003, dated 2014)

Tests used:
Assay type in all cases: in vivo
[1] = tested on: barnyardgrass (Echinochloa crus-galli); experiment: Test A pre/postemergence
Outline: (§1)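 Ratings: 0 = no effect, 100 = complete control, assessed visually about ten days post-treatment in a greenhouse. Applications: soil-directed preemergence spray and postemergence spray on 1- to 2-leaf plants, both using a surfactant-containing non-phytotoxic solvent formulation.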

[2] = tested on: crabgrass (Digitaria sanguinalis); experiment: Test A pre/postemergence
Outline: as §1

[3] = tested on: giant foxtail (Setaria faberi); experiment: Test A pre/postemergence
Outline: as §1

[4] = tested on: morningglory (Ipomoea spp.); experiment: Test A pre/postemergence
Outline: as §1

[5] = tested on: redroot pigweed (Amaranthus retroflexus); experiment: Test A pre/postemergence
Outline: as §1

[6] = tested on: velvetleaf (Abutilon theophrasti); experiment: Test A pre/postemergence
Outline: as §1

[7] = tested on: barnyardgrass (Echinochloa crus-galli); experiment: Test E flooded paddy water application; conditions: Flood, 21 days, scale 0 to 100 (0 no effect, 100 complete control)
Source text: (§2) Three plastic pots (ca. 16-cm diameter) per rate were partially filled with sterilized Tama silt loam soil comprising a 35:50:15 ratio of sand, silt and clay and 2.6% organic matter. Separate plantings for each of the three pots were as follows. Seeds from the U.S. of ducksalad (Heteranthera limosa), smallflower umbrella sedge (Cyperus difformis) and purple redstem (Ammannia coccinea), were planted into one 16-cm pot for each rate. Seeds from the U.S. of rice flatsedge (Cyperus iria), bearded (brdd.) sprangletop (Leptochloa fusca ssp. fascicularis), one stand of 9 or 10 water seeded rice seedlings (Oryza sativa cv. ‘Japonica-M202’), and one stand of 6 transplanted rice seedlings (Oryza sativa cv. ‘Japonica-M202’) were planted into one 16-cm pot for each rate. Seeds from the U.S. of barnyardgrass (Echinochloa crus-galli), late watergrass (Echinochloa oryzicola), early watergrass (Echinochloa oryzoides) and junglerice (Echinochloa colona) were planted into one 16-cm pot for each rate. Plantings were sequential so that crop and weed species were at the 2.0 to 2.5-leaf stage at time of treatment.
(§3) Potted plants were grown in a greenhouse with day/night temperature settings of 29.5/26.7° C., and supplemental balanced lighting was provided to maintain a 16-hour photoperiod. Test pots were maintained in the greenhouse until test completion.
(§4) At time of treatment, test pots were flooded to 3 cm above the soil surface, treated by application of test compounds directly to the paddy water, and then maintained at that water depth for the duration of the test. Effects of treatments on rice and weeds were visually evaluated by comparison to untreated controls after 21 days. Plant response ratings, summarized in Table E, are based on a scale of 0 to 100 where 0 is no effect and 100 is complete control. A dash (-) response means no test result.

[8] = tested on: bearded (brdd.) sprangletop (Leptochloa fusca ssp. fascicularis); experiment: Test E flooded paddy water application; conditions: Flood, 21 days, scale 0 to 100 (0 no effect, 100 complete control)
Source text: as §2, §3, §4

[9] = tested on: ducksalad (Heteranthera limosa); experiment: Test E flooded paddy water application; conditions: Flood, 21 days, scale 0 to 100 (0 no effect, 100 complete control)
Source text: as §2, §3, §4

[10] = tested on: early watergrass (Echinochloa oryzoides); experiment: Test E flooded paddy water application; conditions: Flood, 21 days, scale 0 to 100 (0 no effect, 100 complete control)
Source text: as §2, §3, §4

[11] = tested on: junglerice (Echinochloa colona); experiment: Test E flooded paddy water application; conditions: Flood, 21 days, scale 0 to 100 (0 no effect, 100 complete control)
Source text: as §2, §3, §4

[12] = tested on: late watergrass (Echinochloa oryzicola); experiment: Test E flooded paddy water application; conditions: Flood, 21 days, scale 0 to 100 (0 no effect, 100 complete control)
Source text: as §2, §3, §4

[13] = tested on: purple redstem (Ammannia coccinea); experiment: Test E flooded paddy water application; conditions: Flood, 21 days, scale 0 to 100 (0 no effect, 100 complete control)
Source text: as §2, §3, §4

[14] = tested on: rice flatsedge (Cyperus iria); experiment: Test E flooded paddy water application; conditions: Flood, 21 days, scale 0 to 100 (0 no effect, 100 complete control)
Source text: as §2, §3, §4

[15] = tested on: smallflower umbrella sedge (Cyperus difformis); experiment: Test E flooded paddy water application; conditions: Flood, 21 days, scale 0 to 100 (0 no effect, 100 complete control)
Source text: as §2, §3, §4

[16] = tested on: transplanted rice seedlings (Oryza sativa cv. ‘Japonica-M202’); experiment: Test E flooded paddy water application; conditions: Flood, 21 days, scale 0 to 100 (0 no effect, 100 complete control)
Source text: as §2, §3, §4

[17] = tested on: water seeded rice seedlings (Oryza sativa cv. ‘Japonica-M202’); experiment: Test E flooded paddy water application; conditions: Flood, 21 days, scale 0 to 100 (0 no effect, 100 complete control)
Source text: as §2, §3, §4

[18] = Postemergence, 125 g ai/ha, 0 to 100 scale (0 no effect, 100 complete control)
[19] = Postemergence, 500 g ai/ha, 0 to 100 scale (0 no effect, 100 complete control)
[20] = Preemergence, 125 g ai/ha, 0 to 100 scale where 0 is no effect and 100 is complete control, approximately ten days
[21] = Preemergence, 500 g ai/ha, 0 to 100 scale where 0 is no effect and 100 is complete control, approximately ten days

Q: With CCOC(=O)c1nc(-c2ccc(Cl)cc2Cl)nc(N)c1Br [Compound 67] as the compound, how does the “Plant response rating, Barnyardgrass” value [1, 18] read?
A: Its value is 0.

Q: What about the “Plant response rating, Barnyardgrass” value [1, 19] of the same compound?
A: The value was 0.

Q: What about the “Plant response rating, Barnyardgrass” value [1, 20] of the same compound?
A: Its value is 0.

Q: And the “Plant response rating, Barnyardgrass” value [1, 21]?
A: Its value is 0.

Q: What about the “Plant response rating, Crabgrass” value [2, 18] of the same compound?
A: Its value is 5.

Q: And the “Plant response rating, Crabgrass” value [2, 19]?
A: The value was 5.

Q: What about the “Plant response rating, Crabgrass” value [2, 20] of the same compound?
A: Its value is 0.

Q: What about the “Plant response rating, Crabgrass” value [2, 21] of the same compound?
A: Its value is 30.

Q: And the “Plant response rating, Foxtail, Giant” value [3, 18]?
A: The value was 0.

Q: And the “Plant response rating, Foxtail, Giant” value [3, 19]?
A: The value was 0.

Q: What about the “Plant response rating, Foxtail, Giant” value [3, 20] of the same compound?
A: Its value is 0.

Q: And the “Plant response rating, Foxtail, Giant” value [3, 21]?
A: The value was 30.

Q: And the “Plant response rating, Morningglory” value [4, 18]?
A: Its value is 50.

Q: And the “Plant response rating, Morningglory” value [4, 19]?
A: Its value is 60.

Q: What about the “Plant response rating, Morningglory” value [4, 20] of the same compound?
A: Its value is 0.

Q: And the “Plant response rating, Morningglory” value [4, 21]?
A: The value was 0.

Q: What about the “Plant response rating, Pigweed” value [5, 18] of the same compound?
A: The value was 90.

Q: And the “Plant response rating, Pigweed” value [5, 19]?
A: The value was 90.

Q: And the “Plant response rating, Pigweed” value [5, 20]?
A: Its value is 10.

Q: What about the “Plant response rating, Pigweed” value [5, 21] of the same compound?
A: The value was 75.

Q: And the “Plant response rating, Velvetleaf” value [6, 18]?
A: Its value is 65.

Q: And the “Plant response rating, Velvetleaf” value [6, 19]?
A: The value was 75.

Q: And the “Plant response rating, Velvetleaf” value [6, 20]?
A: The value was 10.

Q: What about the “Plant response rating, Velvetleaf” value [6, 21] of the same compound?
A: Its value is 40.

Q: What about the “Barnyardgrass plant response rating” value ([7]; 32 g ai/ha) of the same compound?
A: Its value is 0.

Q: And the “Barnyardgrass plant response rating” value ([7]; 64 g ai/ha)?
A: Its value is 0.

Q: What about the “Barnyardgrass plant response rating” value ([7]; 125 g ai/ha) of the same compound?
A: Its value is 40.

Q: What about the “Barnyardgrass plant response rating” value ([7]; 250 g ai/ha) of the same compound?
A: Its value is 40.

Q: And the “Plant response rating, Barnyardgrass” value ([7]; 16 g ai/ha)?
A: Its value is 0.

Q: And the “Sprangletop, Brdd. plant response rating” value ([8]; 32 g ai/ha)?
A: The value was 0.

Q: And the “Sprangletop, Brdd. plant response rating” value ([8]; 64 g ai/ha)?
A: The value was 0.

Q: And the “Sprangletop, Brdd. plant response rating” value ([8]; 125 g ai/ha)?
A: Its value is 30.

Q: What about the “Sprangletop, Brdd. plant response rating” value ([8]; 250 g ai/ha) of the same compound?
A: Its value is 30.

Q: What about the “Plant response rating, Sprangletop, Brdd.” value ([8]; 16 g ai/ha) of the same compound?
A: Its value is 0.

Q: What about the “Ducksalad plant response rating” value ([9]; 32 g ai/ha) of the same compound?
A: Its value is 100.

Q: What about the “Ducksalad plant response rating” value ([9]; 64 g ai/ha) of the same compound?
A: The value was 100.

Q: And the “Ducksalad plant response rating” value ([9]; 125 g ai/ha)?
A: Its value is 100.

Q: What about the “Ducksalad plant response rating” value ([9]; 250 g ai/ha) of the same compound?
A: The value was 100.

Q: What about the “Plant response rating, Ducksalad” value ([9]; 16 g ai/ha) of the same compound?
A: The value was 85.

Q: And the “Watergrass, Early plant response rating” value ([10]; 32 g ai/ha)?
A: Its value is 0.

Q: And the “Watergrass, Early plant response rating” value ([10]; 64 g ai/ha)?
A: Its value is 0.

Q: What about the “Watergrass, Early plant response rating” value ([10]; 125 g ai/ha) of the same compound?
A: Its value is 0.

Q: What about the “Watergrass, Early plant response rating” value ([10]; 250 g ai/ha) of the same compound?
A: The value was 0.

Q: And the “Plant response rating, Watergrass, Early” value ([10]; 16 g ai/ha)?
A: Its value is 0.

Q: What about the “Junglerice plant response rating” value ([11]; 32 g ai/ha) of the same compound?
A: Its value is 0.

Q: What about the “Junglerice plant response rating” value ([11]; 64 g ai/ha) of the same compound?
A: Its value is 0.

Q: And the “Junglerice plant response rating” value ([11]; 125 g ai/ha)?
A: The value was 30.

Q: What about the “Junglerice plant response rating” value ([11]; 250 g ai/ha) of the same compound?
A: The value was 65.

Q: What about the “Plant response rating, Junglerice” value ([11]; 16 g ai/ha) of the same compound?
A: The value was 0.

Q: What about the “Watergrass, Late plant response rating” value ([12]; 32 g ai/ha) of the same compound?
A: The value was 0.

Q: And the “Watergrass, Late plant response rating” value ([12]; 64 g ai/ha)?
A: Its value is 0.

Q: What about the “Watergrass, Late plant response rating” value ([12]; 125 g ai/ha) of the same compound?
A: Its value is 0.

Q: What about the “Watergrass, Late plant response rating” value ([12]; 250 g ai/ha) of the same compound?
A: Its value is 0.

Q: What about the “Plant response rating, Watergrass, Late” value ([12]; 16 g ai/ha) of the same compound?
A: Its value is 0.

Q: And the “Redstem plant response rating” value ([13]; 32 g ai/ha)?
A: The value was 0.

Q: What about the “Redstem plant response rating” value ([13]; 64 g ai/ha) of the same compound?
A: Its value is 0.

Q: What about the “Redstem plant response rating” value ([13]; 125 g ai/ha) of the same compound?
A: Its value is 0.

Q: And the “Redstem plant response rating” value ([13]; 250 g ai/ha)?
A: Its value is 85.

Q: And the “Plant response rating, Redstem” value ([13]; 16 g ai/ha)?
A: The value was 0.

Q: And the “Flatsedge, Rice plant response rating” value ([14]; 32 g ai/ha)?
A: The value was 0.

Q: And the “Flatsedge, Rice plant response rating” value ([14]; 64 g ai/ha)?
A: The value was 30.

Q: And the “Flatsedge, Rice plant response rating” value ([14]; 125 g ai/ha)?
A: Its value is 60.

Q: And the “Flatsedge, Rice plant response rating” value ([14]; 250 g ai/ha)?
A: The value was 60.

Q: And the “Plant response rating, Flatsedge, Rice” value ([14]; 16 g ai/ha)?
A: Its value is 0.

Q: And the “Sedge, Umbrella plant response rating” value ([15]; 32 g ai/ha)?
A: Its value is 0.

Q: And the “Sedge, Umbrella plant response rating” value ([15]; 64 g ai/ha)?
A: Its value is 0.

Q: What about the “Sedge, Umbrella plant response rating” value ([15]; 125 g ai/ha) of the same compound?
A: The value was 40.

Q: And the “Sedge, Umbrella plant response rating” value ([15]; 250 g ai/ha)?
A: Its value is 70.

Q: What about the “Plant response rating, Sedge, Umbrella” value ([15]; 16 g ai/ha) of the same compound?
A: The value was 0.

Q: And the “Rice, Transplanted plant response rating” value ([16]; 32 g ai/ha)?
A: Its value is 0.

Q: What about the “Rice, Transplanted plant response rating” value ([16]; 64 g ai/ha) of the same compound?
A: The value was 0.

Q: And the “Rice, Transplanted plant response rating” value ([16]; 125 g ai/ha)?
A: Its value is 0.

Q: And the “Rice, Transplanted plant response rating” value ([16]; 250 g ai/ha)?
A: The value was 0.

Q: And the “Plant response rating, Rice, Transplanted” value ([16]; 16 g ai/ha)?
A: The value was 0.

Q: And the “Rice, Water Seeded plant response rating” value ([17]; 32 g ai/ha)?
A: Its value is 0.

Q: And the “Rice, Water Seeded plant response rating” value ([17]; 64 g ai/ha)?
A: The value was 0.

Q: And the “Rice, Water Seeded plant response rating” value ([17]; 125 g ai/ha)?
A: The value was 0.

Q: And the “Rice, Water Seeded plant response rating” value ([17]; 250 g ai/ha)?
A: The value was 0.

Q: And the “Plant response rating, Rice, Water Seeded” value ([17]; 16 g ai/ha)?
A: Its value is 0.
